Data as given in patent US8895740B2, “Pyrazolopyrazine kinase inhibitors” (Vertex Pharmaceuticals Incorporated, priority 2010, dated 2014).
pKi: −log10 of the molar value.

Assays:
[1] = target: PKC theta kinase (Homo sapiens, UniProt Q04759); assay: PKC theta kinase coupled-enzyme (NADH consumption) inhibition assay; assay type: biochemical; conditions: 240 μM ATP, 18 nM PKC theta, 30° C.
Procedure: An assay buffer solution was prepared which consisted of 100 mM HEPES (pH 7.5), 10 mM MgCl2, 25 mM NaCl, 0.1 mM EDTA and 0.01% Brij. An enzyme buffer containing reagents to final assay concentrations of 0.00001% Triton X-100, 200 μg/mL Phosphatidylserine, 20 μg/mL Diacylglycerol, 360 μM NADH, 3 mM phosphoenolpyruvate, 70 μg/mL pyruvate kinase, 24 μg/mL lactate dehydrogenase, 2 mM DTT, 100 μM substrate peptide (ERMRPRKRQGSVRRRV SEQ ID NO. 1) and 18 nM PKC theta kinase was prepared in assay buffer. To 60 μL of this enzyme buffer, in a 384 well plate, was added 2 μL of VRT stock solution in DMSO. The mixture was allowed to equilibrate for 10 mins at 30° C. The enzyme reaction was initiated by the addition of 5 μL stock ATP solution prepared in assay buffer to a final assay concentration of 240 μM. Initial rate data was determined from the rate of change of absorbance at 340 nm (corresponding to stoichiometric consumption of NADH) using a Molecular Devices Spectramax plate reader (Sunnyvale, Calif.) over 15 mins at 30° C. For each Ki determination 12 data points covering the VRT concentration range of 0-20 μM were obtained in duplicate (DMSO stocks were prepared from an initial 10 mM VRT stock with subsequent 1:2 serial dilutions). Ki values were calculated from initial rate data by non-linear regression using the Prism software package (Prism 4.0a, Graphpad Software, San Diego, Calif.).

[2] = target: PKC delta kinase (Homo sapiens, UniProt Q05655); assay: PKC delta kinase coupled-enzyme (NADH consumption) inhibition assay; assay type: biochemical; conditions: 150 μM ATP, 46 nM PKC delta, 30° C.
Sequence of PKC delta kinase (Q05655 whole entry): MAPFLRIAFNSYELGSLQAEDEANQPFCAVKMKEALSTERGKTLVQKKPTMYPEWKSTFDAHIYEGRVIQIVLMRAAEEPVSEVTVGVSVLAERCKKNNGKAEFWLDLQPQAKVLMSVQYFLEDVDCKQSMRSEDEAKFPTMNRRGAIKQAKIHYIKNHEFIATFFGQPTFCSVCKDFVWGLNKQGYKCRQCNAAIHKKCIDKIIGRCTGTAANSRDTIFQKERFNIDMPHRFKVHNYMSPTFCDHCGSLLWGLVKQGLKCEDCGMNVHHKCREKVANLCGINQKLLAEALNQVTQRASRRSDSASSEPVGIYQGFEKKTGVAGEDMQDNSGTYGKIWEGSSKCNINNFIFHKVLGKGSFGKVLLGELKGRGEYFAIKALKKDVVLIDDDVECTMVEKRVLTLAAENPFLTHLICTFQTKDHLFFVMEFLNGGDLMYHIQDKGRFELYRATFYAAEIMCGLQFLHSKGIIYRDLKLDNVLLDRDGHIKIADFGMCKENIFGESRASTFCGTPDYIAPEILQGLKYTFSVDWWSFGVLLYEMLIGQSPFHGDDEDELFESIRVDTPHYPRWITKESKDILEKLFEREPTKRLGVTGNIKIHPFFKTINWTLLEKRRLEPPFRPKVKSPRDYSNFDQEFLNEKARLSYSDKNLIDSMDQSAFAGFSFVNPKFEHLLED
Procedure: An assay buffer solution was prepared which consisted of 100 mM HEPES (pH 7.5), 10 mM MgCl2, 25 mM NaCl, 0.1 mM EDTA and 0.01% Brij. An enzyme buffer containing reagents to final assay concentrations of 0.002% Triton X-100, 200 μg/mL Phosphatidylserine, 20 μg/mL Diacylglycerol, 360 μM NADH, 3 mM phosphoenolpyruvate, 70 μg/mL pyruvate kinase, 24 μg/mL lactate dehydrogenase, 2 mM DTT, 150 μM substrate peptide (ERMRPRKRQGSVRRRV SEQ ID NO. 2) and 46 nM PKC delta kinase was prepared in assay buffer. To 16 μL of this enzyme buffer, in a 384 well plate, was added 1 μL of VRT stock solution in DMSO. The mixture was allowed to equilibrate for 10 mins at 30° C. The enzyme reaction was initiated by the addition of 16 μL stock ATP solution prepared in assay buffer to a final assay concentration of 150 μM. Initial rate data was determined from the rate of change of absorbance at 340 nm (corresponding to stoichiometric consumption of NADH) using a Molecular Devices Spectramax plate reader (Sunnyvale, Calif.) over 15 mins at 30° C. For each Ki determination 12 data points covering the VRT concentration range of 0-20 μM were obtained in duplicate (DMSO stocks were prepared from an initial 10 mM VRT stock with subsequent 1:2 serial dilutions). Ki values were calculated from initial rate data by non-linear regression using the Prism software package (Prism 4.0a, Graphpad Software, San Diego, Calif.).

Sequence of PKC theta kinase (Q04759 whole entry): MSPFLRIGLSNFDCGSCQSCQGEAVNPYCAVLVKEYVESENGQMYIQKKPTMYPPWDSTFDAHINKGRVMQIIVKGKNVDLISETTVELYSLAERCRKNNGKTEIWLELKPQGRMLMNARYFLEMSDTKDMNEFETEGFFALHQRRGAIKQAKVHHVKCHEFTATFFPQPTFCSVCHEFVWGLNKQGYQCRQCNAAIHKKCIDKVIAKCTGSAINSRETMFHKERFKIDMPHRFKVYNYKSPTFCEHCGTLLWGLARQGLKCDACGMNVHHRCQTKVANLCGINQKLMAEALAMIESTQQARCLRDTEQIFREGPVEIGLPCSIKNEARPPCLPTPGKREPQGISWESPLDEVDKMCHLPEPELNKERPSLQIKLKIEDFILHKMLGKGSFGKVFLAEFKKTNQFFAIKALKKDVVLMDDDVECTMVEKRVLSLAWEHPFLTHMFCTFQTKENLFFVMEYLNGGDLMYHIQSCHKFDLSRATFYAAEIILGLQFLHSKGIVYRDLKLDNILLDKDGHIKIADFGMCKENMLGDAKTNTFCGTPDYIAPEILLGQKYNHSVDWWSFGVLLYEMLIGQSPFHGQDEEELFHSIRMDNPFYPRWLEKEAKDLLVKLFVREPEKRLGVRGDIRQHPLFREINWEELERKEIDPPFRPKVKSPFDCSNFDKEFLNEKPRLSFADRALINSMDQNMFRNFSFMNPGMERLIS

- pKi [1]: > 5.55
- pKi [2]: < 5.90
Compound: c1cc(-c2n[nH]c3nccnc23)nc(N2CCNCC2)c1 [Compound 1, 3-(6-(piperazin-1-yl)pyridin-2-yl)-1H-pyrazolo[3,4-b]pyrazine]
